From patent US7884242B2, “N-heterocyclylphthaldiamides as insecticides” (Bayer CropScience AG, priority 2004, dated 2011)

What was measured:
[1] = log P determination with LC-MS under acidic conditions, pH 2.7; type: physicochemical; details: reverse phase HPLC column (C 18)
Experimental: (§1) The determination of the log P values given in the above table and preparation examples is carried out in accordance with EEC directive 79/831 Annex V.A8 by HPLC (High Performance Liquid Chromatography) on a reverse phase column (C 18). Temperature: 43° C. The determination with LC-MS under acidic conditions is carried out at pH 2.7 with 0.1% aqueous formic acid and acetonitrile (contains 01% formic acid) as eluents; linear gradient from 10% acetonitrile to 95% acetonitrile. Calibration was is carried out with unbranched alkan-2-ones (with 3 to 16 carbon atoms) of known log P values (Determination of log P values by the retention times by linear interpolation between two sequential alkanones).

[2] = tested on: caterpillars of the fall army worm (Spodoptera frugiperda); test: Spodoptera frugiperda test (spray treatment); type: in vivo; details: for pest or weed control at 4 g/ha: Spodoptera frugiperda, 168 h, spray treatment, maize leaf sections, after 7 d, read-out: Death rate in % after 7d; for activity in Spodoptera frugiperda test (spray treatment): statement in words
Experimental: [table] For the preparation of a suitable active compound formulation 1 part by weight of the active compound is mixed with the above amounts of solvent and emulsifier and the concentrate is diluted to the desired concentration with water containing emulsifier. Maize leaf sections (Zea mays) are sprayed with an active compound preparation of the desired concentration and after drying infected with caterpillars of the fall army worm (Spodoptera frugiperda). After the desired time the activity in % is determined. Here 100% means that all caterpillars were killed; 0% means that no caterpillars were killed.

[3] = tested on: green peach aphid (Myzus persicae); test: Myzus test (spray treatment); type: in vivo; details: for pest or weed control at 100 g/ha: Myzus persicae, in Brassica oleracea, 120 h, spray treatment, China cabbage slices, after 5 d, read-out: Death rate in % after 5d; for activity in Myzus test (spray treatment): statement in words
Experimental: (§2) [table] For the preparation of a suitable active compound formulation 1 part by weight of the active compound is mixed with the above amounts of solvent and emulsifier and the concentrate is diluted to the desired concentration with water containing emulsifier. China cabbage slices (Brassica pekinensis) that are infected with all stages of the green peach aphid (Myzus persicae) are sprayed with an active compound preparation at the desired concentration. After the desired time the activity in % is determined. Here 100% means that all aphids were killed; 0% means that no aphids were killed.

[4] = tested on: larvae of the mustard leaf beetle (Phaedon cochleariae); test: Phaedon test (spray treatment); type: in vivo; details: for activity in Phaedon test (spray treatment): statement in words
Experimental: [table] For the preparation of a suitable active compound formulation 1 part by weight of the active compound is mixed with the above amounts of solvent and emulsifier and the concentrate is diluted to the desired concentration with water containing emulsifier. China cabbage slices (Brassica pekinensis) are sprayed with an active compound preparation of the desired composition and after drying infected with larvae of the mustard leaf beetle (Phaedon cochleariae). After the desired time the activity in % is determined. Here 100% means that all beetle larvae were killed; 0% means that no beetle larvae were killed.

[5] = tested on: caterpillars of the diamond back moth (Plutella xylostella); test: Plutella test; type: in vivo; details: for Death rate in % after 7d: cabbage leaves dipped; for activity in Plutella test: statement in words
Experimental: [table] For the preparation of a suitable active compound formulation 1 part by weight of the active compound is mixed with the above amounts of solvent and emulsifier and the concentrate is diluted to the desired concentration with water containing emulsifier. Cabbage leaves (Brassica oleracea) are treated by dipping into the active compound preparation of the desired concentration and infected with caterpillars of the diamond back moth (Plutella xylostella) while the leaves were still wet. After the desired time the death rate is determined as %. Here 100% means that all caterpillars were killed; 0% means no caterpillars were killed.

[6] = tested on: cotton aphid (Aphis gossypii); test: Aphis gossypii test; type: in vivo; details: for Death rate in % after 7d: cotton leaves immersed; for activity in Aphis gossypii test: statement in words
Experimental: as §2, with “Cotton leaves (Gossypium hirsutum) heavily infested with the cotton aphid (Aphis gossypii)” for “China cabbage slices (Brassica pekinensis) that”, “treated by immersion in” for “infected with all stages of”, “the” for “the green peach aphid (Myzus persicae) are sprayed with an”, “death rate” for “activity”

[7] = log P determination by HPLC on reverse phase column, pH 2.3; type: physicochemical; details: reverse phase HPLC column (C 18), reverse phase column (C 18), pH 2.3, 43° C.
Experimental: as §1, with “is carried out” for “with LC-MS”, “conditions” for “conditions is carried out”, “2.3” for “2.7”, “phosphoric” for “formic”, “acetonitrile” for “acetonitrile (contains 01% formic acid)”, “of” for “from”

[8] = Phaedon cochleariae, 168 h, spray treatment, China cabbage slices, after 7 d, read-out: Death rate in % after 7d

Row | SMILES | chromatographic logP [1] | chromatographic logP [7] | pest or weed control at 4 g/ha [2] [%] | activity in Spodoptera frugiperda test (spray treatment) [2] | pest or weed control at 100 g/ha [3] [%] | activity in Myzus test (spray treatment) [3] | pest or weed control at 100 g/ha [4, 8] [%] | activity in Phaedon test (spray treatment) [4] | Death rate in % after 7d ([5]; 0.8 ppm) [%] | activity in Plutella test [5] | Death rate in % after 7d ([6]; 20 ppm) [%] | activity in Aphis gossypii test [6] | Death rate in % after 7d ([5]; 0.16 ppm) [%] | Death rate in % after 7d ([6]; 100 ppm) [%] | pest or weed control at 4 g/ha ([4]; Phaedon cochleariae, 168 h, 4 g/ha, spray treatment, China cabbage slices, after 7 d, read-out: Death rate in % after 7d) [%]
1 | Cc1sc(CO)cc1[N+](=O)[O-] [(5-methyl-4-nitro-2-thienyl)methanol] | 1.4 |  |  |  |  |  |  |  |  |  |  |  |  |  | 
2 | CSC[C@H](C)NC(=O)c1c(Cl)cccc1C(=O)Nc1ccc(Cn2nc(C(F)(F)F)cc2C(F)(F)F)nc1C [Example 1, N^1-(6-{[3,5-bis(trifluoromethyl)-1H-pyrazol-1-yl]methyl}-2-methylpyridin-3-yl)-3-chloro-N^2-[(1S)-1-methyl-2-(methylthio)ethyl]phthalamide] |  |  | 100 | good activity | 100 | good activity | 100 | good activity |  |  |  |  |  |  | 
3 | Cc1nc(Cn2nc(C(F)(F)F)cc2C(F)(F)F)ccc1NC(=O)c1cccc(Cl)c1C(=O)N[C@@H](C)C[S+](C)[O-] (stereo partly drawn) [Example 2, N^1-(6-{[3,5-bis(trifluoromethyl)-1H-pyrazol-1-yl]methyl}-2-methylpyridin-3-yl)-3-chloro-N^2-[(1S)-1-methyl-2-(methylsulphinyl)ethyl]phthalamide] |  |  | 100 | good activity | 100 | good activity | 100 | good activity |  |  |  |  |  |  | 
4 | CSC[C@H](C)NC(=O)c1c(I)cccc1C(=O)Nc1ccc(Cn2nc(C(F)(F)F)cc2C(F)(F)F)nc1C [Example 6] |  | 3.68 | 100 | good activity | 100 | good activity | 100 | good activity | 100 | good activity | 95 | good activity |  |  | 
5 | Cc1nc(Cn2nc(C(F)(F)F)cc2C(F)(F)F)ccc1NC(=O)c1cccc(I)c1C(=O)N[C@@H](C)C[S+](C)[O-] (stereo partly shown) [Example 7] |  | 2.42 | 100 | good activity | 90 | good activity | 90 | good activity |  |  |  |  |  |  | 
6 | Cc1nc(Cn2nc(C(F)(F)F)cc2C(F)(F)F)ccc1NC(=O)c1cccc(I)c1C(=O)N[C@@H](C)CS(C)(=O)=O [Example 8] |  | 2.8 | 100 | good activity | 100 | good activity | 100 | good activity |  |  |  |  |  |  | 
7 | Cc1nc(Cn2nc(C(F)(F)F)nc2C(F)(F)F)ccc1NC(=O)c1cccc(Cl)c1C(=O)N[C@@H](C)CS(C)(=O)=O [Example 16] |  | 2.56 | 100 | good activity | 100 | good activity | 100 | good activity |  | good activity |  | good activity | 100 | 80 | 
8 | Cc1nc(Cn2nc(C(F)(F)F)cc2C(F)(F)F)ccc1N [IIIa-1, 6-{[3,5-bis(trifluoromethyl)-1H-pyrazol-1-yl]methyl}-2-methylpyridin-3-amine] | 1.9 |  |  |  |  |  |  |  |  |  |  |  |  |  | 
9 | Cc1sc(Cn2nc(C(F)(F)F)nc2C(F)(F)F)cc1N [IIIb-1, 5-{[3,5-bis(trifluoromethyl)-1H-1,2,4-triazol-1-yl]methyl}-2-methylthiophene-3-amine] | 2.2 |  |  |  |  |  |  |  |  |  |  |  |  |  | 

Further lines, with some results ahead:

Row | chromatographic logP [1] | chromatographic logP [7] | SMILES | pest or weed control at 4 g/ha [2] [%] | activity in Spodoptera frugiperda test (spray treatment) [2] | pest or weed control at 100 g/ha [3] [%] | activity in Myzus test (spray treatment) [3] | pest or weed control at 100 g/ha [4, 8] [%] | activity in Phaedon test (spray treatment) [4] | Death rate in % after 7d ([5]; 0.8 ppm) [%] | activity in Plutella test [5] | Death rate in % after 7d ([6]; 20 ppm) [%] | activity in Aphis gossypii test [6] | Death rate in % after 7d ([5]; 0.16 ppm) [%] | Death rate in % after 7d ([6]; 100 ppm) [%] | pest or weed control at 4 g/ha ([4]; Phaedon cochleariae, 168 h, 4 g/ha, spray treatment, China cabbage slices, after 7 d, read-out: Death rate in % after 7d) [%]
10 |  | 2.28 | Cc1nc(Cn2nc(C(F)(F)F)nc2C(F)(F)F)ccc1NC(=O)c1cccc(I)c1C(=O)N[C@@H](C)C[S+](C)[O-] (stereo partly shown) [Example 13] | 100 | good activity | 100 | good activity | 100 | good activity |  | good activity |  |  | 95 |  | 
11 |  | 3.39 | CSC[C@H](C)NC(=O)c1c(Cl)cccc1C(=O)Nc1ccc(Cn2nc(C(F)(F)F)nc2C(F)(F)F)nc1C [Example 14] | 100 | good activity | 90 | good activity | 90 | good activity |  |  |  |  |  |  | 
12 |  | 2.17 | Cc1nc(Cn2nc(C(F)(F)F)nc2C(F)(F)F)ccc1NC(=O)c1cccc(Cl)c1C(=O)N[C@@H](C)C[S+](C)[O-] (stereo partly shown) [Example 15] | 100 | good activity | 100 | good activity | 100 | good activity |  |  |  |  |  |  | 
13 |  | 3.62 | CSC[C@H](C)NC(=O)c1c(Cl)cccc1C(=O)Nc1cnc(Cn2nc(C(F)(F)C(F)(F)F)nc2C(F)(F)F)nc1C [Example 30] | 100 | good activity | 90 | good activity |  |  |  |  |  |  |  |  | 
14 |  | 3.67 | CSC[C@H](C)NC(=O)c1c(Br)cccc1C(=O)Nc1cnc(Cn2nc(C(F)(F)C(F)(F)F)nc2C(F)(F)F)nc1C [Example 31] | 100 | good activity | 100 | good activity |  |  |  |  |  |  |  |  | 
15 |  | 2.56 | Cc1nc(Cn2nc(C(F)(F)F)cc2C(F)(F)F)ncc1NC(=O)c1cccc(Cl)c1C(=O)N[C@@H](C)CS(C)(=O)=O [Example 34] | 100 | good activity |  | good activity |  |  |  |  |  |  |  |  | 
16 |  | 2.91 | Cc1nc(Cn2cc(C(F)(F)C(F)(F)F)c(C(F)(F)C(F)(F)F)n2)ncc1NC(=O)c1cccc(Cl)c1C(=O)N[C@@H](C)C[S+](C)[O-] (stereo partly shown) [Example 65] | 100 | good activity | 100 | good activity |  | good activity |  |  |  | good activity |  | 80 | 100
